{"source": "paper PMC2691833", "about": "(Nucleic Acids Research, 2009)", "target": "T1, EcoR124I holoenzyme (Escherichia coli, UniProt P10486)", "T1 sequence (P10486 1-1038)": "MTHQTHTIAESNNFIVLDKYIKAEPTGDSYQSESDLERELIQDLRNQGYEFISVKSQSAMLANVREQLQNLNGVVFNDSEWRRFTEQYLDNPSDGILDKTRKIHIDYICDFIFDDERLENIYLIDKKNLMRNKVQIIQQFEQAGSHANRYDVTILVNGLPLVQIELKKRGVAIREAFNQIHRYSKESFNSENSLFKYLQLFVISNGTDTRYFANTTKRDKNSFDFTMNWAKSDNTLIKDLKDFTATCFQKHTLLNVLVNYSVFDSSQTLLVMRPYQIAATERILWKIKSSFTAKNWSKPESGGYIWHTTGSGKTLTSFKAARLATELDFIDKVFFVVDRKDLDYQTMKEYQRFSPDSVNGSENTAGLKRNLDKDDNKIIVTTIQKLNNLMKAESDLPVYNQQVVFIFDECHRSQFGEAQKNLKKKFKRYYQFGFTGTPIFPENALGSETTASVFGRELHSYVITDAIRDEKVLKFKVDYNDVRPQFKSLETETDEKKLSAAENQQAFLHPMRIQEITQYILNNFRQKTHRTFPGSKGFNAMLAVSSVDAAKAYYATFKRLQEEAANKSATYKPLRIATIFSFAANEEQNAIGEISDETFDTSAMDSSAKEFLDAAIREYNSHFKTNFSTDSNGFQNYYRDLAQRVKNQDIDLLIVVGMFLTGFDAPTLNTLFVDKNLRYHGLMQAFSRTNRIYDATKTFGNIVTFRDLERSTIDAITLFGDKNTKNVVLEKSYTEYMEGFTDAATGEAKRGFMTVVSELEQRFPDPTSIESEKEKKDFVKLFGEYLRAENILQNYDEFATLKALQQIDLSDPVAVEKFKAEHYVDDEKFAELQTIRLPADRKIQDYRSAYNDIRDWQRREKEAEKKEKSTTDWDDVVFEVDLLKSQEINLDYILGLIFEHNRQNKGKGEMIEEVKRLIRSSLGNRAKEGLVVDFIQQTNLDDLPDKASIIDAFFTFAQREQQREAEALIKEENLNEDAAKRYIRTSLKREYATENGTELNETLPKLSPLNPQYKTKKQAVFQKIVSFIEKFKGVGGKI", "T1 sequence (P10484 1-520 partner)": "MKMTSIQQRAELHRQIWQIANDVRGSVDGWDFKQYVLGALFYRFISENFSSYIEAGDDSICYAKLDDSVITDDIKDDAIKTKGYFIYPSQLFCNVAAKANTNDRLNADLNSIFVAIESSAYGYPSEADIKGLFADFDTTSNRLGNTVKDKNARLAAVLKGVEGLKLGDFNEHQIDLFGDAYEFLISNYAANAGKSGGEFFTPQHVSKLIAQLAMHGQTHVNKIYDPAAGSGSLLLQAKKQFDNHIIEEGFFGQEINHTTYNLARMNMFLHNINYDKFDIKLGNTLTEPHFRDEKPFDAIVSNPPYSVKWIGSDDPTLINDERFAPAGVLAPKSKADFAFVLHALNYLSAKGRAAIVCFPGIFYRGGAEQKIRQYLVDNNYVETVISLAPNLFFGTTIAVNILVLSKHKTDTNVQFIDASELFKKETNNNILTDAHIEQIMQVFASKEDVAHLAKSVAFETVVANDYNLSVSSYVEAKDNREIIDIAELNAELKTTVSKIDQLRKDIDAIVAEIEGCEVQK", "T1 sequence (P10485 1-404 partner)": "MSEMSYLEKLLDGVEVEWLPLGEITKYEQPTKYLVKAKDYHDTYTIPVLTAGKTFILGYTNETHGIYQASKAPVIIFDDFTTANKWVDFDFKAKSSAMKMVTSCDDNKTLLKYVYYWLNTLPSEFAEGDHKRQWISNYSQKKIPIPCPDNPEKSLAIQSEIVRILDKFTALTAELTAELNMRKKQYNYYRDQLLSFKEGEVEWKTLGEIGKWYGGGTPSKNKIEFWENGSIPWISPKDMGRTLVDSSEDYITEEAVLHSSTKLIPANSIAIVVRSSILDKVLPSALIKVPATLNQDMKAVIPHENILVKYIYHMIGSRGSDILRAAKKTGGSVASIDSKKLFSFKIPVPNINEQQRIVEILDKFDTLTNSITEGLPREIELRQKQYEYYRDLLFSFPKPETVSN", "details": "1 mM ATP, 5 mM Mg(OAc)2, negatively supercoiled R+- or 2R+-DNA, pH 7.5, 25 °C"}
{"smiles": "Nc1ncnc2c1ncn2[C@@H]1O[C@H](COP(=O)(O)OP(=O)(O)OP(=O)(O)O)[C@@H](O)[C@H]1O", "note": "[ATP]", "values": [{"measurement": "continuous coupled spectrophotometric ATPase assay", "value": "as total protein concentration increases, the initial rates of ATP hydrolysis increase accordingly"}]}
